Data from PMC2832585 (Bioorganic & medicinal chemistry, 2009).
Like-named read-outs stand apart in the source and are kept apart here.

How the values were obtained:
[1] = test system: single ventricular myocytes; assay: Cardiomyocyte contractility model; type: cell-based, rat
[2] = test system: single ventricular myocytes; conditions: read-out: EC50(cardio); previous data; ref [10]; cited from earlier work
[3] = target: human β2-AR (Homo sapiens, UniProt P07550); assay: β2-AR binding, [3H]CGP-12177 displacement on HEK cell membranes; conditions: relative to (R,R)-1 or (R,S)-1
Chain of human β2-AR (P07550 whole entry): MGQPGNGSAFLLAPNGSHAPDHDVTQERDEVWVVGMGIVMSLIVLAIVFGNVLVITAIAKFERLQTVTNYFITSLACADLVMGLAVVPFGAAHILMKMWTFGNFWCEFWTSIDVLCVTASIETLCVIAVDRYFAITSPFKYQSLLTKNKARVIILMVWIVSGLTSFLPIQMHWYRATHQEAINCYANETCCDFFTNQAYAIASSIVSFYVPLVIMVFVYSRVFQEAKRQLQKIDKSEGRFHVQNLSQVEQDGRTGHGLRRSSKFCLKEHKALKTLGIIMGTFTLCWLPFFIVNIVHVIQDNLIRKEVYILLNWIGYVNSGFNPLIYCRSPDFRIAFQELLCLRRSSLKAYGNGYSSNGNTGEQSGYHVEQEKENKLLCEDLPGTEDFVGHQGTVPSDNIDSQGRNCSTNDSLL

[4] = target: β1-AR (Rattus norvegicus, UniProt P18090); assay: β1-AR binding, [3H]CGP-12177 displacement on rat cortical membranes
Chain of β1-AR (P18090 whole entry): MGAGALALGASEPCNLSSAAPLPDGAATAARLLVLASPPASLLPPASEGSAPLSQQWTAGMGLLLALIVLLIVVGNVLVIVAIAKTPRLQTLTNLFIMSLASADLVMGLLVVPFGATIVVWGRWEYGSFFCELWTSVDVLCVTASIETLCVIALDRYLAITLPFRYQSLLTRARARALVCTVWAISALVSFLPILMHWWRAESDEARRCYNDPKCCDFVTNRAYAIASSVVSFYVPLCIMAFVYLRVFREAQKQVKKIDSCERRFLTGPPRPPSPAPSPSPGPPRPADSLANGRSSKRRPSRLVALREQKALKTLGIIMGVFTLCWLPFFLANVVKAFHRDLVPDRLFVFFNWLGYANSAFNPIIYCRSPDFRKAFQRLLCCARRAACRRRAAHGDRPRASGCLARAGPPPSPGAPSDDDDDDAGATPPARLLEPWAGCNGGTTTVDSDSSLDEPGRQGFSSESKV

Compound: C[C@H](Cc1ccc(O)cc1)NC[C@H](O)c1cc(O)cc(O)c1 [(R,R)-1, (R,R)-fenoterol]
- EC50 ([1]; read-out: EC50cardio, cardiomyocyte contractility): 0.073 ± 0.018 µM

Compound: C[C@H](Cc1ccc(O)cc1)NC[C@@H](O)c1cc(O)cc(O)c1 [(S,R)-1]
- EC50 [2]: 2.34 µM

Compound: COc1ccc(C[C@@H](C)NC[C@@H](O)c2cc(O)cc(O)c2)cc1 [(S,R)-2]
- EC50 [2]: 3.16 µM

Compound: CC[C@@H](Cc1ccc(O)cc1)NC[C@H](O)c1cc(O)cc(O)c1 (racemic) [(R,S)-52]
- Ki(β2-AR) fold greater than corresponding isomer of 1 [3]: 1.5 fold

Compound: CC[C@H](Cc1ccc(O)cc1)NC[C@H](O)c1cc(O)cc(O)c1 [(R,R)-52, (R,R-(−)-5-(1-Hydroxy-2-(1-hydroxyphenyl)butan-2-ylamino)ethyl) benzene-1,3-diol]
- Ki(β2-AR) fold greater than corresponding isomer of 1 [3]: ~ 4 fold
- antagonism of the activity of zinterol ([1]; cardiomyocyte contractility model, data not shown): did not antagonize
- sensitivity of cardiomyocyte contractility activity to pertussis toxin ([1]; initial data, data not shown, indicates activation of both GS and Gi proteins): sensitive to pertussis toxin
- Ki(β1-AR) of (R,R)-isomer fold larger than (R,S)-isomer [4]: 4 fold
- Ki(β1-AR) fold higher than corresponding isomer of 1 ([4]; relative to (R,R)-1 or (R,S)-1): 28 fold
